Measurements from patent publication US11690810B2, “Combination treatment of bacterial infection” (The Chinese University of Hong Kong, priority 2018, dated 2023).
“And” between values parts separate entries of the source, which are not always exact repeats. Equal entries are not always repeated.

Key:
Assay in all cases: MIC and checkerboard (FIC) assay
[1] = tested on: CA-MRSA strain ST30; type: cell-based, Staphylococcus aureus; settings: ST30
[2] = tested on: clinical fusidic acid resistant MRSA strain 82356; type: cell-based, Staphylococcus aureus; settings: for FIC / MIC combine: 82356
[3] = tested on: clinical fusidic acid resistant MRSA strain 73621; type: cell-based, Staphylococcus aureus; settings: for FIC / MIC combine: 73621
[4] = tested on: clinical fusidic acid resistant MRSA strain 96591; type: cell-based, Staphylococcus aureus; settings: for FIC / MIC combine: 96591
[5] = tested on: S. aureus ATCC25923 (methicillin sensitive); settings: ATCC 25293
[6] = tested on: CA MRSA W44; settings: W44
[7] = tested on: CA MRSA W45; settings: W45
[8] = tested on: CA MRSA W46; settings: W46
[9] = tested on: CA MRSA W47; settings: W47
[10] = tested on: CA MRSA W48; settings: W48
[11] = tested on: CA MRSA W103; settings: W103
[12] = tested on: CA MRSA W106; settings: W106
[13] = tested on: CA MRSA W113; settings: W113
[14] = tested on: HA MRSA W231
[15] = tested on: HA MRSA W233
[16] = tested on: HA MRSA W235; settings: W235
[17] = tested on: HA MRSA W238
[18] = tested on: HA MRSA W239; settings: W239
[19] = tested on: HA MRSA W240; settings: W240

C=C(C)[C@H](CC=C(C)C)Cc1c(O)cc(OC)c(C(=O)/C=C/c2ccc(O)cc2O)c1O [Kuraridin]
4 µg/mL and 8 µg/mL: MIC alone ([4]; 96591 (fusidic acid resistant), listed as Kur)
8 µg/mL: MIC alone [1] | MIC alone ([1]; Table 5) | MIC alone ([2]; 82356 (fusidic acid resistant)) | MIC alone ([3]; 73621 (fusidic acid resistant)) | MIC alone [5] | MIC alone [6] | MIC alone ([6]; Table 5) | MIC alone [7] | MIC alone ([7]; Table 5) | MIC alone [8] | MIC alone ([8]; Table 5) | MIC alone [9] | MIC alone ([9]; Table 5) | MIC alone [10] | MIC alone ([10]; Table 5) | MIC alone [11] | MIC alone [12] | MIC alone [13] | MIC alone ([14]; W231 (gentamicin resistant)) | MIC alone ([14]; W231, Table 5) | MIC alone ([15]; W233 (gentamicin resistant)) | MIC combine ([15]; W233, ECG+Kur, no Gen) | MIC alone ([15]; W233, Table 5) | MIC alone [16] | MIC alone ([17]; W238) | MIC alone ([17]; W238 (gentamicin resistant)) | MIC alone ([17]; W238, Table 5) | MIC alone [18] | MIC alone ([18]; Table 5) | MIC alone [19]
1 µg/mL: MIC combine ([1]; ECG+Kur+Van) | MIC combine ([14]; W231, ECG with Kur) | MIC combine ([14]; W231, ECG+Kur+Van)
2 µg/mL: MIC combine ([4]; ECG+Kur+Fus) | MIC combine ([6]; ECG with Kur) | MIC combine ([6]; ECG+Kur+Van) | MIC combine ([7]; ECG+Kur+Van) | MIC combine ([9]; ECG+Kur+Van) | MIC combine ([10]; ECG+Kur+Van) | MIC combine ([12]; ECG with Kur) | MIC combine ([14]; W231, ECG+Kur+Gen) | MIC combine ([14]; W231, ECG+Kur, no Gen) | MIC combine ([15]; W233, ECG with Kur) | MIC combine ([15]; W233, ECG+Kur+Van) | MIC combine ([17]; W238, ECG+Kur+Gen) | MIC combine ([17]; W238, ECG+Kur+Van) | MIC combine ([18]; ECG+Kur+Van)
0.5: FIC ([1]; ECG with Kur) | FIC ([2]; ECG+Kur, no Fus) | FIC ([3]; ECG+Kur+Fus) | FIC ([3]; ECG+Kur, no Fus) | FIC ([4]; ECG+Kur+Fus) | FIC ([4]; ECG+Kur, no Fus) | FIC ([5]; ECG with Kur) | FIC ([7]; ECG with Kur) | FIC ([8]; ECG with Kur) | FIC ([8]; ECG+Kur+Van) | FIC ([9]; ECG with Kur) | FIC ([10]; ECG with Kur) | FIC ([11]; ECG with Kur) | FIC ([13]; ECG with Kur) | FIC ([15]; W233, ECG with Kur) | FIC ([15]; W233, ECG+Kur+Gen) | FIC ([16]; ECG with Kur) | FIC ([17]; W238, ECG with Kur) | FIC ([17]; W238, ECG+Kur, no Gen) | FIC ([18]; ECG with Kur) | FIC ([19]; ECG with Kur)
1: FIC ([15]; W233, ECG+Kur, no Gen)
0.25: FIC ([2]; ECG+Kur+Fus) | FIC ([6]; ECG with Kur) | FIC ([6]; ECG+Kur+Van) | FIC ([7]; ECG+Kur+Van) | FIC ([9]; ECG+Kur+Van) | FIC ([10]; ECG+Kur+Van) | FIC ([12]; ECG with Kur) | FIC ([14]; W231, ECG with Kur) | FIC ([14]; W231, ECG+Kur+Gen) | FIC ([14]; W231, ECG+Kur, no Gen) | FIC ([15]; W233, ECG+Kur+Van) | FIC ([17]; W238, ECG+Kur+Gen) | FIC ([17]; W238, ECG+Kur+Van) | FIC ([18]; ECG+Kur+Van)
4 µg/mL: MIC combine ([1]; ECG with Kur) | MIC combine ([2]; ECG+Kur+Fus) | MIC combine ([2]; ECG+Kur, no Fus) | MIC combine ([3]; ECG+Kur+Fus) | MIC combine ([3]; ECG+Kur, no Fus) | MIC combine ([4]; ECG+Kur, no Fus) | MIC combine ([5]; ECG with Kur) | MIC combine ([7]; ECG with Kur) | MIC combine ([8]; ECG with Kur) | MIC combine ([8]; ECG+Kur+Van) | MIC combine ([9]; ECG with Kur) | MIC combine ([10]; ECG with Kur) | MIC combine ([11]; ECG with Kur) | MIC combine ([13]; ECG with Kur) | MIC alone ([14]; W231) | MIC alone ([15]; W233) | MIC combine ([15]; W233, ECG+Kur+Gen) | MIC combine ([16]; ECG with Kur) | MIC combine ([17]; W238, ECG with Kur) | MIC combine ([17]; W238, ECG+Kur, no Gen) | MIC combine ([18]; ECG with Kur) | MIC combine ([19]; ECG with Kur)
0.125: FIC ([1]; ECG+Kur+Van) | FIC ([14]; W231, ECG+Kur+Van)
